# Measurements: EP0054589B1, “Organic phosphoric acid ester derivatives, a process for preparing the same and insecticidal, miticidal or nematocidal compositions containing the same” (priority 1980, dated 1982)
# Read-outs that look alike come from different tables or passages of the source.
# What was measured:
# apple leaf miner = assay: Insecticidal effect on apple leaf miner (sprayed apple seedling); assay type: in vivo, Lithocolletis ringoniella; conditions: for mortality at 500 ppm: Phyllonorycter ringoniella, 336 h
# Procedure: (A) A dilute water suspension of a wettable powder prepared as described in Formulation Example 5 was sufficiently sprayed using a spray-gun on a seedling of an apple tree planted in a bisque flower pot to which plant larvae of apple leaf miner just after hatching were parasitic. Thereafter the pots were placed in a green house. Fourteen days after the spraying, bores made by larvae were broken and percent mortality was assessed for all the leaves of each seedling. Three pots were used for each treatment.
# (B) A dilute water suspension of a wettable powder prepared as described in Formulation Example 7 was sufficiently sprayed using a spray-gun on a seedling of an apple tree planted in a bisque flower pot to which plant larvae of apple leaf miner just after hatching were parasitic. Thereafter the pots were placed in a green house. Fourteen days after the spraying, bores made by larvae were broken and percent mortality was assessed for all the leaves of each seedling. Three pots were used for each treatment.
# tobacco cutworm = assay: Insecticidal effect on tobacco cutworm (cabbage leaf dip); assay type: in vivo, Prodenia litura; conditions: after 48 hours, 25°C
# Procedure: (A) An emulsifiable concentrate prepared as described in Formulation Example 1 was diluted with water to a predetermined concentration and then cabbage leaves were dipped into the dilute solution and dried in air and placed in a 60 ml volume cup made of vinyl chloride resin. 3rd-instar larvae of tobacco cutworm were put in each cup and maintained at 25°C. After 48 hours, percent mortality was assessed. The test was replicated 3 times for each compound using 30 insects in each test.
# (B) An emulsifiable concentrate prepared as described in Formulation Example 3 was diluted with water to a predetermined concentration and then cabbage leaves were dipped into the dilute solution and dried in air and placed in a 60 ml volume cup made of vinyl chloride resin. 3rd-instar larvae of tobacco cutworm were put in each cup and maintained at 25°C. After 48 hours, percent mortality was assessed. The test was replicated 3 times for each compound using 30 insects in each test.
# rice stem borer = assay: Insecticidal effect on rice stem borer, 3rd-instar larvae (rice seedling dip); assay type: in vivo, Chilo suppressalis; conditions: after 72 hours, 25°C
# Procedure: (A) A wettable powder prepared as described in Formulation Example 5 was diluted with water to a predetermined concentration. Rice seedlings were dipped into the dilute solution and placed in a 60 ml volume cup made of vinyl chloride resin, and 10 3rd-instar larvae of rice stem borer were put in each cup. The cups were capped and maintained at 25°C.
# (B) A wettable powder prepared as described in Formulation Example 7 was diluted with water to a predetermined concentration. Rice seedlings were dipped into the dilute solution and placed in a 60 ml volume cup made of vinyl chloride resin, and 10 3rd-instar larvae of rice stem borer were put in each cup. The cups were capped and maintained at 25°C.
# Cabbage = assay: Phytotoxicity on various crops; assay type: in vivo; parameters: key: Symbol — indicates that no toxicity was observed; conditions: 500 ppm sprayed; checked visually after 10 days
# Procedure: (§1) An emulsifiable concentrate prepared as described in Formulation Example 2 was diluted with water to a concentration of 500 ppm based on the effective ingredient and sprayed sufficiently using a spray-gun onto various test plants. The plants were kept in a green house. After 10 days from the application phytotoxicity was checked visually. The test was replicated 3 times for each compound.
# Apple = assay: Phytotoxicity on various crops; assay type: in vivo; parameters: key: Symbol — indicates that no toxicity was observed; conditions: 500 ppm sprayed; checked visually after 10 days
# Procedure: as §1
# egg plant = assay: Phytotoxicity on various crops; assay type: in vivo; parameters: key: Symbol — indicates that no toxicity was observed; conditions: 500 ppm sprayed; checked visually after 10 days
# Procedure: as §1
# Tomato = assay: Phytotoxicity on various crops; assay type: in vivo; parameters: key: Symbol — indicates that no toxicity was observed; conditions: 500 ppm sprayed; checked visually after 10 days
# Procedure: as §1
# Cotton = assay: Phytotoxicity on various crops; assay type: in vivo; parameters: key: Symbol — indicates that no toxicity was observed; conditions: 500 ppm sprayed; checked visually after 10 days
# Procedure: as §1
# Green Pepper = assay: Phytotoxicity on various crops; assay type: in vivo; parameters: key: Symbol — indicates that no toxicity was observed; conditions: 500 ppm sprayed; checked visually after 10 days
# Procedure: as §1
# Rice = assay: Phytotoxicity on various crops; assay type: in vivo; parameters: key: Symbol — indicates that no toxicity was observed; conditions: 500 ppm sprayed; checked visually after 10 days
# Procedure: as §1
# Tea = assay: Phytotoxicity on various crops; assay type: in vivo; parameters: key: Symbol — indicates that no toxicity was observed; conditions: 500 ppm sprayed; checked visually after 10 days
# Procedure: as §1
# Beet = assay: Phytotoxicity on various crops; assay type: in vivo; parameters: key: Symbol — indicates that no toxicity was observed; conditions: 500 ppm sprayed; checked visually after 10 days
# Procedure: as §1
# Kidney Bean = assay: Phytotoxicity on various crops; assay type: in vivo; parameters: key: Symbol — indicates that no toxicity was observed; conditions: 500 ppm sprayed; checked visually after 10 days
# Procedure: as §1
# Cucumber = assay: Phytotoxicity on various crops; assay type: in vivo; parameters: key: Symbol — indicates that no toxicity was observed; conditions: 500 ppm sprayed; checked visually after 10 days
# Procedure: as §1
# diamond back moth = assay: Insecticidal effect on diamond-back moth (cabbage leaf dip); assay type: in vivo, Plutella xylostella; conditions: after 72 hours, 25°C
# Procedure: (A) An emulsifiable concentrate prepared as described in Formulation Example 1 was diluted with water to a predetermined concentration and leaves of a cabbage were dipped into the dilute emulsion for 10 seconds followed by drying in air, and charged in a 60 ml volume cup made of vinyl chloride resin. Then, thirty 3rd-instar larvae of diamond back moth were put in each cup, and the cups were kept at 25°C. After 72 hours, percent mortality was assessed and the test was replicated 3 times for each treatment.
# (B) An emulsifiable concentrate prepared as described in Formulation Example 4 was diluted with water to a predetermined concentration and leaves of a cabbage were dipped into the dilute emulsion for 10 seconds followed by drying in air, and charged in a 60 ml volume cup made of vinyl chloride resin. Then, thirty 3rd-instar larvae of diamond back moth were put in each cup, and the cups were kept at 25°C. After 72 hours, percent mortality was assessed and the test was replicated 3 times for each treatment.
# [1] = tested on: carmine mites resistant to Kelthane; assay: Miticidal effect on carmine mite resistant to Kelthane (sprayed egg plant seedling); assay type: in vivo, Tetranychus cinnabarius; conditions: Table 13, 500 ppm
# Procedure: (§2) (A) An emulsifiable concentrate prepared as described in Formulation Example 1 and diluted to a predetermined concentration was sprayed using a spray-gun on a seedling of an egg plant placed in a pot of 12 cm in diametre to which plant carmine mites resistant to Kelthane were parasitic. After drying in air, seedlings were kept in a green house, and the number of living insects was recorded on the 7th, 14th, 21 st and 28th day from the day of application to determine the control effects. Three pots were used for each treatment. The control effect was assessed by the formula described in TEST EXAMPLE 7 above. Further, phytotoxicity was observed visually on the 7th day after the application.
# as §2, with “(B) An” for “(A) An”, “Example 3” for “Example 1”, “in diameter” for “in diametre”, “in Test” for “in TEST”
# carmine mites = assay: Miticidal effect on carmine mite (sprayed kidney bean seedling); assay type: in vivo, Tetranychus cinnabarius; conditions: 500 ppm
# Procedure: An emulsifiable concentrate prepared as described in Formulation Example 1 and diluted to a predetermined concentration was sprayed using a spray-gun on a seedling of a kidney bean placed in a pot of 12 cm in diameter to which plant carmine mites were parasitic. After drying in air, seedlings were kept in a green house, and the number of living insects was recorded on the 7th, 14th, 21st and 28th day from the day of application to determine the control effects. Three pots were used for each treatment. The control effect was assessed by the following formula: [formula] • wherein Σ indicates sum and Cb, Tb, Cai and Tai have the following meanings. • Cb: Number of living mites in non-treated sample before application. • Tb: Number of living mites in treated sample before application. • Cai: Number of living mites in non-treated sample 7th, 14th, 21 st or 28th day from the application. • Tai: Number of living mites in treated sample 7th, 14th, 21st or 28th day from the application.
# [2] = Table 3, 500 ppm, emulsifiable concentrate as Formulation Example 1
# [3] = Table 1, 500 ppm, wettable powder as Formulation Example 5
# [4] = Table 4, 100 ppm, emulsifiable concentrate as Formulation Example 3
# [5] = Table 8, 100 ppm, emulsifiable concentrate as Formulation Example 4
# [6] = egg plant seedling, Formulation Example 1
# [7] = Table 7, 100 ppm, emulsifiable concentrate as Formulation Example 1
smiles,measurement,setting,value
"CCOC(=O)C(SP(=S)(OC)OC)c1ccccc1 (stereo not drawn) [Elsan, S-(α-ethoxy-carbonyl benzyl O,O-dimethyl phosphorodithioate, reference compound]",Percent Morality (%),"apple leaf miner; Table 10, 500 ppm, fourteen days after spraying, wettable powder as Formulation Example 5, 20160 min",13.2%
"COc1nn(CSP(=S)(OC)OC)c(=O)s1 [Supracide, O,O-dimethyl-S-[5-methoxy-1,3,4-thiadiazol-2(3H)-onyl(3)-methyl]dithiophosphate, reference compound]",mortality at 500 ppm,"apple leaf miner; Table 11, 500 ppm, fourteen days after spraying, wettable powder as Formulation Example 7, read-out: Percent Mortality (%)",72%
CCCOP(=O)(Oc1ccc2c(c1)OC(C)=CC2(C)C)SC (stereo not drawn) [Compound No. 13],Percent Mortality (%),tobacco cutworm; [2],100%
same,Percent Mortality (%),rice stem borer; [3],100%
same,Phytotoxicity: Cabbage,Cabbage,—
same,Phytotoxicity: Apple,Apple,—
same,Phytotoxicity: Egg Plant,egg plant,—
same,Phytotoxicity: Tomato,Tomato,—
same,Phytotoxicity: Cotton,Cotton,—
same,Phytotoxicity: Green Pepper,Green Pepper,—
same,Phytotoxicity: Rice,Rice,—
same,Phytotoxicity: Tea,Tea,—
same,Phytotoxicity: Beet,Beet,—
same,Phytotoxicity: Kidney Bean,Kidney Bean,—
same,Phytotoxicity: Cucumber,Cucumber,—
CCCSP(=S)(OCC)Oc1cccc2c1C(C)=CC(C)(C)O2 (stereo not drawn) [Compound No. 26],Percent Mortality (%),tobacco cutworm; [4],100%
same,Percent Mortality (%),"rice stem borer; Table 2, 100 ppm, wettable powder as Formulation Example 7",100%
same,Percent Mortality (%),diamond back moth; [5],96.7%
same,Phytotoxicity: Cabbage,Cabbage,—
same,Phytotoxicity: Apple,Apple,—
same,Phytotoxicity: Egg Plant,egg plant,—
same,Phytotoxicity: Tomato,Tomato,—
same,Phytotoxicity: Cotton,Cotton,—
same,Phytotoxicity: Green Pepper,Green Pepper,—
same,Phytotoxicity: Rice,Rice,—
same,Phytotoxicity: Tea,Tea,—
same,Phytotoxicity: Beet,Beet,—
same,Phytotoxicity: Kidney Bean,Kidney Bean,—
same,Phytotoxicity: Cucumber,Cucumber,—
CCCCSP(=O)(OCC)Oc1ccc2c(c1)OC(C)=CC2(C)C (stereo not drawn) [Compound No. 5],Percent Mortality (%),tobacco cutworm; [2],100%
same,Number of Living Mites after Application 7th Day,[1]; [6],0
same,Number of Living Mites after Application 14th Day,[1]; [6],0
same,Number of Living Mites after Application 21st Day,[1]; [6],9
same,Number of Living Mites after Application 28th Day,[1]; [6],29
same,Control Effect (%),"[1]; from mite counts on 7th, 14th, 21st and 28th day",97.4%
same,Percent Mortality (%),rice stem borer; [3],100%
same,Percent Mortality (%),diamond back moth; [7],100%
same,Phytotoxicity: Cabbage,Cabbage,—
same,Phytotoxicity: Apple,Apple,—
same,Phytotoxicity: Egg Plant,egg plant,—
same,Phytotoxicity: Tomato,Tomato,—
same,Phytotoxicity: Cotton,Cotton,—
same,Phytotoxicity: Green Pepper,Green Pepper,—
same,Phytotoxicity: Rice,Rice,—
same,Phytotoxicity: Tea,Tea,—
same,Phytotoxicity: Beet,Beet,—
same,Phytotoxicity: Kidney Bean,Kidney Bean,—
same,Phytotoxicity: Cucumber,Cucumber,—
same,Control Effect (%),carmine mites,91.2%
same,Number of Living Mites after Application 7th Day,carmine mites,0
same,Number of Living Mites after Application 14th Day,carmine mites,0
same,Number of Living Mites after Application 21st Day,carmine mites,16
same,Number of Living Mites after Application 28th Day,carmine mites,38
"COP(=O)(OC)OC=C(Cl)Cl [DDVP, dimethyl 2,2-dichlorovinyl dimethyl phosphate, reference compound]",Percent Mortality (%),tobacco cutworm; [4],46.7%
same,Percent Mortality (%),diamond back moth; [7],23.3%
same,Percent Mortality (%),"diamond back moth; Table 7, 500 ppm",76.7%
same,Percent Mortality (%),diamond back moth; [5],6.7%
same,Percent Mortality (%),"diamond back moth; Table 8, 500 ppm",83.3%
CCOP(=S)(Oc1ccc2c(c1)OC(C)=CC2(C)C)SCC (stereo not drawn) [compound 12],Percent Mortality (%),tobacco cutworm; [2],100%
same,Percent Mortality (%),rice stem borer; [3],100%
same,Phytotoxicity: Cabbage,Cabbage,—
same,Phytotoxicity: Apple,Apple,—
same,Phytotoxicity: Egg Plant,egg plant,—
same,Phytotoxicity: Tomato,Tomato,—
same,Phytotoxicity: Cotton,Cotton,—
same,Phytotoxicity: Green Pepper,Green Pepper,—
same,Phytotoxicity: Rice,Rice,—
same,Phytotoxicity: Tea,Tea,—
same,Phytotoxicity: Beet,Beet,—
same,Phytotoxicity: Kidney Bean,Kidney Bean,—
same,Phytotoxicity: Cucumber,Cucumber,—
"CCOP(=S)(OCC)Oc1nc(Cl)c(Cl)cc1Cl [Dursban, 0,0-diethyl 0-(3,5,6-trichloro-2-pyridyl)phosphorothioate, reference compound]",mortality at 500 ppm,apple leaf miner; read-out: Percent Morality (%),29.4%
